Measured values as given in ChEMBL document CHEMBL1275440, “In vitro activity of telavancin against resistant gram-positive bacteria” (2008).
≈ marks a conversion by molar mass, not a printed value. Calls of active or inactive are those of the source. The rule behind the calls is not given here.

Columns and labels:
Format in all cases: functional
Streptococcus pneumoniae [1] = experiment: Antibacterial activity against multidrug resistant Streptococcus pneumoniae MED 1090 assessed as bacterial count at 2 ug/ml after 24 hrs by time-kill assay
Enterococcus faecalis [2] = experiment: Antibacterial activity against Enterococcus faecalis ATCC 51575 assessed as bacterial count at 8 ug/ml after 2 hrs by time-kill assay
Streptococcus pyogenes = experiment: Antibacterial activity against Streptococcus pyogenes MED 2040 assessed as bacterial count at […] after 4 hrs by time-kill assay
[3] = test system: Staphylococcus epidermidis; experiment: Antibacterial activity against methicillin resistant Staphylococcus epidermidis ATCC 35984 assessed as bacterial count at 16 ug/ml after 8 hrs by time-kill assay
Staphylococcus aureus [4] = experiment: Antibacterial activity against methicillin resistant Staphylococcus aureus MED 2028 osteomyelitis isolate assessed as bacterial count at 1 ug/ml after 4 hrs by time-kill assay
Staphylococcus aureus [5] = experiment: Antibacterial activity against methicillin resistant Staphylococcus aureus MED 2028 osteomyelitis isolate assessed as bacterial count at 2 ug/ml after 2 hrs by time-kill assay
Staphylococcus aureus [6] = experiment: Antibacterial activity against methicillin resistant Staphylococcus aureus MED 1805 bloodstream isolate assessed as bacterial count at 2 ug/ml after 2 hrs by time-kill assay
[7] = test system: Staphylococcus epidermidis; experiment: Antibacterial activity against methicillin resistant Staphylococcus epidermidis ATCC 35984 assessed as bacterial count at 4 ug/ml after 8 hrs by time-kill assay
Streptococcus pneumoniae [8] = experiment: Antibacterial activity against multidrug resistant Streptococcus pneumoniae MED 1090 by broth microdilution method
[9] = test system: Staphylococcus epidermidis; experiment: Antibacterial activity against methicillin resistant Staphylococcus epidermidis ATCC 35984 by broth microdilution method
Streptococcus oralis = experiment: Antibacterial activity against Streptococcus oralis clinical isolate by broth microdilution method
Streptococcus agalactiae [10] = experiment: Antibacterial activity against Streptococcus agalactiae MED 2038 assessed as bacterial count at 8 ug/ml after 4 hrs by time-kill assay
Enterococcus faecalis [11] = experiment: Antibacterial activity against Enterococcus faecalis ATCC 51575 assessed as bacterial count at 4 ug/ml after 24 hrs by time-kill assay
[12] = test system: Staphylococcus epidermidis; experiment: Antibacterial activity against methicillin resistant Staphylococcus epidermidis ATCC 35984 assessed as bacterial count at 8 ug/ml after 4 hrs by time-kill assay
[13] = test system: Staphylococcus epidermidis; experiment: Antibacterial activity against methicillin resistant Staphylococcus epidermidis ATCC 35984 assessed as bacterial count at 2 ug/ml after 8 hrs by time-kill assay
Streptococcus pneumoniae [14] = experiment: Antibacterial activity against penicillin intermediate Streptococcus pneumoniae clinical isolate by broth microdilution method
Streptococcus agalactiae [15] = experiment: Antibacterial activity against Streptococcus agalactiae MED 2038 assessed as bacterial count at 2 ug/ml after 8 hrs by time-kill assay
[16] = test system: Staphylococcus epidermidis; experiment: Antibacterial activity against methicillin resistant Staphylococcus epidermidis ATCC 35984 assessed as bacterial count at 2 ug/ml after 4 hrs by time-kill assay
Staphylococcus aureus [17] = experiment: Antibacterial activity against methicillin resistant Staphylococcus aureus MED 1805 bloodstream isolate assessed as bacterial count at 16 ug/ml after 8 hrs by time-kill assay
Streptococcus agalactiae [18] = experiment: Antibacterial activity against Streptococcus agalactiae MED 2038 assessed as bacterial count at 0.5 ug/ml after 4 hrs by time-kill assay
Staphylococcus aureus [19] = experiment: Antibacterial activity against methicillin resistant Staphylococcus aureus MED 1805 bloodstream isolate by broth microdilution method

In the case of CCCCCCCCCCNCCN[C@@]1(C)C[C@H](O[C@H]2[C@H](Oc3c4cc5cc3Oc3ccc(cc3Cl)[C@@H](O)[C@@H](NC(=O)[C@@H](CC(C)C)NC)C(=O)N[C@@H](CC(N)=O)C(=O)N[C@H]5C(=O)N[C@H]3C(=O)N[C@H](C(=O)N[C@H](C(=O)O)c5cc(O)c(CNCP(=O)(O)O)c(O)c5-c5cc3ccc5O)[C@H](O)c3ccc(c(Cl)c3)O4)O[C@H](CO)[C@@H](O)[C@@H]2O)O[C@@H](C)[C@H]1O [TELAVANCIN], the log10CFU/ml (Streptococcus pneumoniae [1]) is reported as 3.4, the log10CFU/ml (Enterococcus faecalis [2]) is reported as 0.2 and the log10CFU/ml (Streptococcus pyogenes) is reported as 0.4. It also gave a log10CFU/ml [3] of 3.3, a log10CFU/ml (Staphylococcus aureus [4]) of 1.3 and a log10CFU/ml (Staphylococcus aureus [5]) of 0.6. The log10CFU/ml (Staphylococcus aureus [6]) was 1, the log10CFU/ml [7] was 3.2 and the MIC (Streptococcus pneumoniae [8]) was 0.015 µg/mL (≈ 0.00854 µM). The MIC [9] was 1 µg/mL (≈ 0.57 µM), the MIC (Streptococcus oralis) was 0.015 µg/mL (≈ 0.00854 µM) and the MIC50 (Streptococcus oralis) was “inactive”. The MIC90 (Streptococcus oralis) was “inactive”, the log10CFU/ml (Streptococcus agalactiae [10]) was 0.9 and the log10CFU/ml (Enterococcus faecalis [11]) was 1.2. It also gave a log10CFU/ml [12] of 2.7, a log10CFU/ml [13] of 0.7 and an MIC50 (Streptococcus pneumoniae [14]) of 0.015 µg/mL (≈ 0.00854 µM). For the same compound, the MIC90 (Streptococcus pneumoniae [14]) was 0.06 µg/mL (≈ 0.0342 µM), the log10CFU/ml (Streptococcus agalactiae [15]) was 1 and the log10CFU/ml [16] was 0.03. The log10CFU/ml (Staphylococcus aureus [17]) was 2.9, the log10CFU/ml (Streptococcus agalactiae [18]) was 1 and the MIC (Staphylococcus aureus [19]) was 0.5 µg/mL (≈ 0.285 µM).
